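1) Cells in 96-well plates. 2) Compound, 48 h, 5 concentrations. 3) Linear interpolation between surrounding doses. 4) Unreached endpoint = highest concentration. Here, GI50 denotes the concentration required for 50% inhibition of growth.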 The source made the active and inactive calls. Cut-off read from the data, not from the text of the source: active = GI50 up to about 1.1 µM and inactive = higher.
Assays:
Test in all cases: NCI-60 cell line screen, 48 h
M14 = system: M14
BT-549 = system: BT-549
DU-145 = system: DU-145
LOX IMVI = system: LOX IMVI
NCI-H23 = system: NCI-H23
RPMI-8226 = system: RPMI-8226
TK-10 = system: TK-10
SK-MEL-2 = system: SK-MEL-2
SK-MEL-28 = system: SK-MEL-28
SNB-75 = system: SNB-75
OVCAR-3 = system: OVCAR-3
SF-295 = system: SF-295
COLO 205 = system: COLO 205
EKVX = system: EKVX
A498 = system: A498
PC-3 = system: PC-3
MDA-MB-435 = system: MDA-MB-435
A549 = system: A549
HL-60 = system: HL-60
IGROV-1 = system: IGROV-1
HCC 2998 = system: HCC 2998
MDA-N = system: MDA-N
SF-539 = system: SF-539
SN12C = system: SN12C
UACC-62 = system: UACC-62
KM12 = system: KM12
SNB-19 = system: SNB-19
U-251 = system: U-251
HCT-15 = system: HCT-15
RXF 393 = system: RXF 393
786-0 = system: 786-0
HCT-116 = system: HCT-116
Hs-578T = system: Hs-578T
HT-29 = system: HT-29
ACHN = system: ACHN
OVCAR-8 = system: OVCAR-8
SK-OV-3 = system: SK-OV-3
MOLT-4 = system: MOLT-4
MDA-MB-231 = system: MDA-MB-231
MCF7 = system: MCF7
HOP-62 = system: HOP-62
NCI/ADR-RES = system: NCI/ADR-RES
SF-268 = system: SF-268
NCI-H460 = system: NCI-H460
NCI-H226 = system: NCI-H226
K562 = system: K562
NCI-H522 = system: NCI-H522
CAKI-1 = system: CAKI-1
CCRF-CEM = system: CCRF-CEM
OVCAR-5 = system: OVCAR-5
Malme-3M = system: Malme-3M
UACC-257 = system: UACC-257
OVCAR-4 = system: OVCAR-4
SW-620 = system: SW-620
T47D = system: T47D
SK-MEL-5 = system: SK-MEL-5
HOP-92 = system: HOP-92
UO-31 = system: UO-31

O=C(N/N=C(COc1ccccc1Cl)\N=C\c1cccnc1)c1ccncc1
GI50 (M14): > 100 µM (inactive) | GI50 (BT-549): > 100 µM (inactive) | GI50 (DU-145): > 100 µM (inactive) | GI50 (LOX IMVI): > 100 µM (inactive) | GI50 (NCI-H23): > 100 µM (inactive) | GI50 (RPMI-8226): > 100 µM (inactive) | GI50 (TK-10): > 100 µM (inactive) | GI50 (SK-MEL-2): > 100 µM (inactive) | GI50 (SK-MEL-28): > 100 µM (inactive) | GI50 (SNB-75): > 100 µM (inactive) | GI50 (OVCAR-3): > 100 µM (inactive) | GI50 (SF-295): > 100 µM (inactive) | GI50 (COLO 205): > 100 µM (inactive) | GI50 (EKVX): > 100 µM (inactive) | GI50 (A498): > 100 µM (inactive) | GI50 (PC-3): > 100 µM (inactive) | GI50 (MDA-MB-435): > 100 µM (inactive) | GI50 (A549): > 100 µM (inactive) | GI50 (HL-60): > 100 µM (inactive) | GI50 (IGROV-1): > 100 µM (inactive) | GI50 (HCC 2998): > 100 µM (inactive) | GI50 (MDA-N): > 100 µM (inactive) | GI50 (SF-539): > 100 µM (inactive) | GI50 (SN12C): > 100 µM (inactive) | GI50 (UACC-62): > 100 µM (inactive) | GI50 (KM12): > 100 µM (inactive) | GI50 (SNB-19): > 100 µM (inactive) | GI50 (U-251): > 100 µM (inactive) | GI50 (HCT-15): > 100 µM | GI50 (RXF 393): > 100 µM (inactive) | GI50 (786-0): > 100 µM (inactive) | GI50 (HCT-116): > 100 µM (inactive) | GI50 (Hs-578T): 66.2 µM (inactive) | GI50 (HT-29): > 100 µM (inactive) | GI50 (ACHN): > 100 µM (inactive) | GI50 (OVCAR-8): > 100 µM (inactive) | GI50 (SK-OV-3): > 100 µM (inactive) | GI50 (MOLT-4): > 100 µM (inactive) | GI50 (MDA-MB-231): > 100 µM (inactive) | GI50 (MCF7): > 100 µM (inactive) | GI50 (HOP-62): > 100 µM (inactive) | GI50 (NCI/ADR-RES): > 100 µM (inactive) | GI50 (SF-268): > 100 µM (inactive) | GI50 (NCI-H460): > 100 µM (inactive) | GI50 (NCI-H226): > 100 µM (inactive) | GI50 (K562): > 100 µM (inactive) | GI50 (NCI-H522): > 100 µM (inactive) | GI50 (CAKI-1): > 100 µM (inactive) | GI50 (CCRF-CEM): > 100 µM (inactive) | GI50 (OVCAR-5): > 100 µM (inactive) | GI50 (Malme-3M): > 100 µM (inactive) | GI50 (UACC-257): > 100 µM (inactive) | GI50 (OVCAR-4): > 100 µM (inactive) | GI50 (SW-620): > 100 µM (inactive) | GI50 (T47D): > 100 µM (inactive)

NCCNCCCCCCNC(=O)c1cccc2cc3ccccc3nc12
GI50 (M14): 1.92 µM (inactive) | GI50 (BT-549): 11.4 µM (inactive) | GI50 (DU-145): 0.632 µM (active) | GI50 (LOX IMVI): 1.47 µM (inactive) | GI50 (NCI-H23): 2.07 µM (inactive) | GI50 (RPMI-8226): 2.01 µM (inactive) | GI50 (TK-10): 8.51 µM (inactive) | GI50 (SK-MEL-2): 2.87 µM (inactive) | GI50 (SK-MEL-28): 5.65 µM (inactive) | GI50 (SK-MEL-5): 3.61 µM (inactive) | GI50 (SNB-75): 3.94 µM (inactive) | GI50 (OVCAR-3): 2.51 µM (inactive) | GI50 (SF-295): 3.6 µM (inactive) | GI50 (COLO 205): 2.75 µM (inactive) | GI50 (EKVX): 8.59 µM (inactive) | GI50 (A498): 2.43 µM (inactive) | GI50 (PC-3): 2.99 µM (inactive) | GI50 (MDA-MB-435): 3.59 µM (inactive) | GI50 (A549): 1.7 µM (inactive) | GI50 (HL-60): 1.39 µM (inactive) | GI50 (IGROV-1): 3.9 µM (inactive) | GI50 (HCC 2998): 2.14 µM (inactive) | GI50 (MDA-N): 2.7 µM (inactive) | GI50 (SF-539): 1.93 µM (inactive) | GI50 (SN12C): 2.42 µM (inactive) | GI50 (UACC-62): 2.01 µM (inactive) | GI50 (KM12): 2 µM (inactive) | GI50 (SNB-19): 2.67 µM (inactive) | GI50 (U-251): 1.64 µM (inactive) | GI50 (HCT-15): 12.6 µM | GI50 (RXF 393): 3.95 µM (inactive) | GI50 (786-0): 1.36 µM (inactive) | GI50 (HCT-116): 2.15 µM (inactive) | GI50 (Hs-578T): 1.88 µM (inactive) | GI50 (HT-29): 1.59 µM (inactive) | GI50 (ACHN): 2.28 µM (inactive) | GI50 (OVCAR-8): 2.03 µM (inactive) | GI50 (MOLT-4): 0.838 µM (active) | GI50 (MDA-MB-231): 2.34 µM (inactive) | GI50 (MCF7): 1.1 µM (active) | GI50 (HOP-62): 2 µM (inactive) | GI50 (NCI/ADR-RES): 17.9 µM (inactive) | GI50 (SF-268): 2.72 µM (inactive) | GI50 (NCI-H460): 0.871 µM (active) | GI50 (NCI-H226): 1.95 µM (inactive) | GI50 (K562): 2.06 µM (inactive) | GI50 (NCI-H522): 1.42 µM (inactive) | GI50 (CAKI-1): 4.78 µM (inactive) | GI50 (CCRF-CEM): 1.03 µM (active) | GI50 (HOP-92): 2.24 µM (inactive) | GI50 (UO-31): 5.66 µM (inactive) | GI50 (OVCAR-5): 4.02 µM (inactive) | GI50 (Malme-3M): 3.94 µM (inactive) | GI50 (UACC-257): 6.1 µM (inactive) | GI50 (OVCAR-4): 2.02 µM (inactive) | GI50 (SW-620): 1.49 µM (inactive) | GI50 (T47D): 5.13 µM (inactive)

Source: ChEMBL document CHEMBL1201862, “PubChem BioAssay data set” (2004)
